Experimental data reported in US8334403B1, “C-lysine conjugates as pH-controlled, light-activated reagents for double stranded DNA cleavage and associated methods” (Florida State University Research Foundation, Inc., priority 2005, dated 2012).

System: three human clear cell renal cell carcinoma (RCC) cell lines (UMRC3, UMRC6, 786-O)
Assay: RCC cell proliferation assay, three cell lines together
Type: cell-based
Conditions: 10 μM
Method: FIG. 23 provides the results of cell proliferation assays using three different RCC cell lines: (a) UMRC3, (b) UMRC6 and (c) 786-O, and compounds I-5; RCC cells were resuspended in media and treated with UV radiation (350 nm) for 10 minutes with and without indicated compounds; control cells were exposed to the indicated compound 1-5 at final concentration of 10 μM; cell numbers determined after 72 hours as described in the SI Section;
The ability of compounds 1-5 to inhibit cell proliferation in three human clear cell renal cell carcinoma (RCC) cell lines was tested in the dark and under photoactivation (FIG. 23). No difference was detected in the control experiments between cells not exposed to UV versus those that were exposed to UV at 350 nm for 10 minutes in any of the three RCC cell lines tested (FIG. 23 A, B & C; first two columns).

Structure (SMILES): Cl.Cl.NCCCC[C@H](N)C(=O)Nc1ccc(C#Cc2ccccc2)cc1 [Compound 5, (S)-2,6-Diaminohexanoic acid [4-(phenylethynyl)-phenyl]-amide dihydrochloride]
- cytotoxicity in the dark: considerably less cytotoxic in the dark
